Data reported in patent publication US10052320B2, “Substituted quinoxalines as FGFR kinase inhibitors” (ASTEX THERAPEUTICS LIMITED, priority 2011, dated 2018).
Where two headings read alike, the source gives them in different places.

Experiments:
[1] = tested on: Ba/F3-FGFR1-transfected cells in the presence of 10 ng/ml murine IL3; test: Ba/F3-FGFR1 (plus IL3) cellular proliferation counterscreen, Alamar Blue; assay type: cell-based; conditions: Mus musculus
Summary of the method: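 First, compound was dispensed and cells added at 20000/well, or 10000/well in the larger-well version. Next came a 24 h incubation at 37 °C. Finally, resazurin reagent was applied for 4 h before fluorescence measurement at 540/590 nm.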

[2] = biological target: Ba/F3-FGFR3-transfected cells (Homo sapiens, UniProt P22607); test: Ba/F3-FGFR3 (minus IL3) cellular proliferation assay, Alamar Blue; assay type: cell-based; conditions: for BAF3-FGFR 3 (MIN IL3) 384 well pIC50: minus IL3, 384 well; for BAF3-FGFR 3 (MIN IL3) 96 well pIC50: minus IL3, 96 well
Sequence of Ba/F3-FGFR3-transfected cells (P22607 whole entry, change not shown): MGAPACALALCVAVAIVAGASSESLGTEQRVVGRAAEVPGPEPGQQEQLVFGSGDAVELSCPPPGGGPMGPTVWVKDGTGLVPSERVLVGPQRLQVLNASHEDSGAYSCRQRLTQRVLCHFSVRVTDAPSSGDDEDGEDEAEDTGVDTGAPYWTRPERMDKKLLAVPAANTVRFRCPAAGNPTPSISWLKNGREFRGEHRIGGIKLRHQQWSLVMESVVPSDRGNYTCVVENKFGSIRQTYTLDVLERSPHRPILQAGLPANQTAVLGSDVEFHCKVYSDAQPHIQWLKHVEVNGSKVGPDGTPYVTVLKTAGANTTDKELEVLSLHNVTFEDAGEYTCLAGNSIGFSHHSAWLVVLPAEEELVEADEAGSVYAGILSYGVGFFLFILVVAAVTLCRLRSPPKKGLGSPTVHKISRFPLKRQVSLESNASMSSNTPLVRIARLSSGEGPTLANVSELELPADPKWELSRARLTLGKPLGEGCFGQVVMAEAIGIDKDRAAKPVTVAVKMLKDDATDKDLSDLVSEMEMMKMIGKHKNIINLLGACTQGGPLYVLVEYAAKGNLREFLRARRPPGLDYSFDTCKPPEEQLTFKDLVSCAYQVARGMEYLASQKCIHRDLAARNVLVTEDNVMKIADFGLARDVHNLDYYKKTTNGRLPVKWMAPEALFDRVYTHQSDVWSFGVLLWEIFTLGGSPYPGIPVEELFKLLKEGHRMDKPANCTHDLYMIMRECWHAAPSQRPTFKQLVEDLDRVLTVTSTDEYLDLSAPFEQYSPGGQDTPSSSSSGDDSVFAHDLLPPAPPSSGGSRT
Description: Ba/F3-FGFR3 (Minus IL3 or Plus IL3) (Cellular Proliferation Assay)
Cells were put in an incubator at 37° C. and 5% CO2. After 24 hours, 10 μl of Alamar Blue solution (0.5 mM K3Fe(CN)6, 0.5 mM KaFe(CN)6, 0.15 mM Resazurin and 100 mM Phosphate Buffer) was added to the wells, incubated for 4 hours at 37° C. and 5% CO2 before RFU's (Relative Fluorescence Units) (ex. 540 nm., em. 590 nm.) were measured in a flurorescence plate reader. […]
In a 96 well plate, 180 μl cell culture medium (phenol red free RPMI-1640, 10% FBS, 2 mM L-Glutamine and 50 μg/ml Gentamycin) containing 10000 cells per well of Ba/F3-FGFR3-transfected cells were pipette and 20 μl of compound dilution in DMSO was added. Cells were put in an incubator at 37° C. and 5% CO2. After 24 hours, 40 μl of Alamar Blue solution (0.5 mM K3Fe(CN)6, 0.5 mM KaFe(CN)6, 0.15 mM Resazurin and 100 mM Phosphate Buffer) was added to the wells, incubated for 4 hours at 37° C. and 5% CO2 before RFU's (Relative Fluorescence Units) (ex. 540 nm., em. 590 nm.) were measured in a flurorescence plate reader.

FGFR1 (h) = FGFR1 (h) (Homo sapiens, UniProt P11362); test: FGFR1 (enzymatic assay), TR-FRET; assay type: biochemical; conditions: read-out: FGFR 1 pIC50 (converted)
Sequence of FGFR1 (h) (P11362 22-822): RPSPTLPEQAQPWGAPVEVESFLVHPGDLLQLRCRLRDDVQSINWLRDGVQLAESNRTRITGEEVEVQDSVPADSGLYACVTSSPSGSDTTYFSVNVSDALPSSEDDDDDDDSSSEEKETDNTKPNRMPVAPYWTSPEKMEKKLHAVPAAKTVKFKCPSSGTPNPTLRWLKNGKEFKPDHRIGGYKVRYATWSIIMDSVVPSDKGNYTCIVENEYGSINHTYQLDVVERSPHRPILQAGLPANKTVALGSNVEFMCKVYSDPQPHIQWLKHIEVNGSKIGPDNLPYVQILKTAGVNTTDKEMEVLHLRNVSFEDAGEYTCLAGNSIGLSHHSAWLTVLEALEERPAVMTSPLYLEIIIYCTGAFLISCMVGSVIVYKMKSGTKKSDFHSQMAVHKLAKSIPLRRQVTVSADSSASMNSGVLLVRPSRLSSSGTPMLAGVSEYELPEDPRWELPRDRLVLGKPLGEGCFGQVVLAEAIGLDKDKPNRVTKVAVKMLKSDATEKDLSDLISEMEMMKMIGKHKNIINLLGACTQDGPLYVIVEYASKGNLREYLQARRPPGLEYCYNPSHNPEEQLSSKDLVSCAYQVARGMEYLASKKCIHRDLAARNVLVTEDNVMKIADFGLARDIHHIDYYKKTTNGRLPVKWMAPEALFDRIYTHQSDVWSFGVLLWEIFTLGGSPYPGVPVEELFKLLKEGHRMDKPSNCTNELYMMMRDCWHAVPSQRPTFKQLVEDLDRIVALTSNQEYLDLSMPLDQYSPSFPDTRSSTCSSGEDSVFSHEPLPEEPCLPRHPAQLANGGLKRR
Description: In a final reaction volume of 30 μL, FGFR1 (h) (25 ng/ml) was incubated with 50 mM HEPES pH 7.5, 6 mM MnCl2, 1 mM DTT, 0.1 mM Na3VO4, 0.01% Triton-X-100, 500 nM Btn-Flt3 and 5 μM ATP in the presence of compound (1% DMSO final). […] Time-Resolved Fluorescence Resonance Energy Transfer (TR-FRET) signal (ex340 nm. Em 620 nm, em 655 nm) was measured afterwards and results are expressed in RFU (Relative Fluorescence Units).

[3] = tested on: Ba/F3-Flt3-transfected cells in the presence of 10 ng/ml murine IL3; test: Ba/F3-Flt3 (plus IL3) cellular proliferation counterscreen, Alamar Blue; assay type: cell-based; conditions: Mus musculus, read-out: BAF3-FLT3 (PLUS IL3) 384 well pIC50 (converted)
[4] = plus IL3, 384 well, read-out: BAF3-FGFR 1 (PLUS IL3) 384 well pIC50 (converted)

Row | Structure (SMILES) | BAF3-FGFR 3 (MIN IL3) 384 well pIC50 [2] | IC50 (FGFR1 (h)) [µM] | melting point [°C] | BAF3-FGFR 3 (MIN IL3) 96 well pIC50 [2] | IC50 [1, 4] [µM] | IC50 ([3]; plus 10 ng/ml murine IL3) [µM] | IC50 ([3]; plus IL3, 384 well) [µM] | IC50 ([1]; plus IL3, 96 well, read-out: BAF3-FGFR 1 (PLUS IL3) 96 well pIC50 (converted)) [µM]
1 | COc1cc(OC)cc(N(CCCNCC(=O)O)c2ccc3ncc(-c4ccnc(C(=O)NCCCCN)c4)nc3c2)c1 [Compound 44] | <5 | 0.0174 | 64 |  | > 10 | > 10 |  | 
2 | COc1cc(OC)cc(N(CCN2CCNCC2)c2ccc3ncc(-c4ccc(N)nc4)nc3c2)c1 [Compound 59] | 5.9 | 0.00363 | 111 |  | > 10 | > 10 |  | 
3 | COc1cc(OC)cc(N(CC2CC2)c2ccc3ncc(N4CCOCC4)nc3c2)c1 [Compound 63] | <5 | 0.537 | 114 | <5 | > 10 |  | > 10 | 
4 | COc1cc(OC)cc(N(CC2CC2)c2ccc3ncc(N4CCN(C)CC4)nc3c2)c1 [Compound 64] | <5 | 0.437 | 92 | 5.02 | > 10 |  | > 10 | 
5 | CNc1ccc(-c2cnc3ccc(N(CCCNCC(F)(F)F)c4cc(OC)cc(OC)c4)cc3n2)cn1 [Compound 129] | 5.89 | 0.0195 | 165 |  | > 10 | > 10 |  | 
6 | COc1cc(OC)cc(N(CCCO)c2ccc3ncc(-c4ccnc(C(=O)NCCCCCN)c4)nc3c2)c1 [Compound 130] | 5.2 | 0.0174 | 161 |  | > 10 | > 10 |  | 
7 | COc1cc(OC)cc(N(CCCNC(C)C)c2ccc3ncc(-c4ccnc(NC(=O)NC(C)C)c4)nc3c2)c1 [Compound 131] | 6.08 | 0.00209 | 155 |  | 3.98 | 3.63 |  | 
8 | COc1cc(OC)cc(N(CCCO)c2ccc3ncc(-c4ccnc(-c5ccnc(Cl)c5)c4)nc3c2)c1 [Compound 133] | <5 | 0.11 | 172 |  | > 10 | > 10 |  | 
9 | COc1cc(OC)cc(N(CCCNCC(F)(F)F)c2ccc3ncc(-c4ccnc(F)c4)nc3c2)c1 [Compound 144] | 5.1 | 0.0741 | 128 |  | > 10 | > 10 |  | 
10 | COc1cc(OC)cc(N(CCCNCC(F)(F)F)c2ccc3ncc(-c4ccnc(Cl)c4)nc3c2)c1 [Compound 145] | <5 | 0.115 | 130 |  | > 10 | > 10 |  | 
11 | COc1cc(OC)cc(N(CCCNCC(F)(F)F)c2ccc3ncc(-c4ccnc(C(=O)NCCCN)c4)nc3c2)c1 [Compound 148] | <5 | 0.0363 | 87 |  | > 10 | > 10 |  | 
12 | COc1cc(OC)cc(N(CCCNCC(F)(F)F)c2ccc3ncc(-c4ccnc(C(=O)NCCCCCO)c4)nc3c2)c1 [Compound 150] | 5.11 | 0.0912 | 95 |  | > 10 | > 10 |  | 
13 | COc1cc(OC)cc(N(CCNC(C)C)c2ccc3ncc(-n4cnc(COC(C)=O)c4)nc3c2)c1 [Compound 167] | 7.09 | 0.00166 | 56 |  | > 10 | > 10 |  | 
14 | COc1cc(OC)cc(N(CCNC(C)C)c2ccc3ncc(-c4ccc(N5CCOCC5)nc4)nc3c2)c1 [Compound 168] | ~7.15 | 0.000955 | 135 |  | 7.76 | ~8.32 |  | 
15 | COc1cc(OC)cc(N(CCN2CCOCC2)c2ccc3ncc(-c4ccc(N)nc4)nc3c2)c1 [Compound 169] | 6.19 | 0.00871 | 164 |  | > 10 | > 10 |  | 

More lines, main results first:

Row | BAF3-FGFR 3 (MIN IL3) 384 well pIC50 [2] | IC50 (FGFR1 (h)) [µM] | melting point [°C] | BAF3-FGFR 3 (MIN IL3) 96 well pIC50 [2] | Structure (SMILES) | IC50 [1, 4] [µM] | IC50 ([3]; plus 10 ng/ml murine IL3) [µM] | IC50 ([3]; plus IL3, 384 well) [µM] | IC50 ([1]; plus IL3, 96 well, read-out: BAF3-FGFR 1 (PLUS IL3) 96 well pIC50 (converted)) [µM]
16 | 6.25 | 0.0158 | 190 |  | COc1cc(OC)cc(N(CCCO)c2ccc3ncc(-c4ccnc(C(=O)N5CCOCC5)c4)nc3c2)c1 [Compound 43] | > 10 | > 10 |  | 
17 | ~6.15 | 0.0257 | 167 |  | COc1cc(OC)cc(N(CCN2CCN(C(C)=O)CC2)c2ccc3ncc(-c4ccc(N)nc4)nc3c2)c1 [Compound 68] | > 10 | > 10 |  | 
18 | ~6.64 | 0.0012 | 106 |  | COc1cc(OC)cc(N(CCN)c2ccc3ncc(-c4ccn(C)c4)nc3c2)c1 [Compound 79] | > 10 | > 10 |  | 
19 | <5 | > 10 | 176 | <5 | COc1cc(OC)cc(N(CC2CC2)c2ccc3ncc(C(=O)N4CCC4)nc3c2)c1 [Compound 93] | > 10 | > 10 |  | > 10
20 | 5.71 | 0.024 | 175 |  | COc1cc(OC)cc(N(CCCO)c2ccc3ncc(-c4ccnc(Cl)c4)nc3c2)c1 [Compound 136] | > 10 | > 10 |  | 
21 | 5.85 | 0.0126 | 155 |  | COc1cc(OC)cc(N(CCCO)c2ccc3ncc(-c4ccnc(F)c4)nc3c2)c1 [Compound 142] | > 10 | > 10 |  | 
22 | 5.32 | 0.0603 | 115 |  | COc1cc(OC)cc(N(CCCO)c2ccc3ncc(-c4cccnc4F)nc3c2)c1 [Compound 149] | > 10 | > 10 |  | 
23 | 5.11 | 0.282 | 133 |  | COc1cc(OC)cc(N(CCO)c2ccc3ncc(-c4ccccc4CCO)nc3c2)c1 [Compound 151] | > 10 | > 10 |  | 
24 | 5.79 | 0.0457 | 80 |  | COc1cc(OC)cc(N(CCO)c2ccc3ncc(-c4ccc(N5CCN(C(=O)OC(C)(C)C)CC5)cc4)nc3c2)c1 [Compound 156] | 8.91 | > 10 |  | 
25 | ~6.14 | 0.00741 | 160 |  | COc1cc(OC)cc(N(CCO)c2ccc3ncc(-c4ccc(N5CCN(C)CC5)nc4)nc3c2)c1 [Compound 163] | ~10 | > 10 |  | 
26 | 6.12 | 0.00389 | 171 |  | COc1cc(OC)cc(N(CCO)c2ccc3ncc(-c4ccc(N5CCNCC5)nc4)nc3c2)c1 [Compound 165] | 6.61 | ~5.75 |  | 
27 | ~6.1 | 0.000513 | 194 |  | COc1cc(OC)cc(N(CCO)c2ccc3ncc(-c4ccc(N5CCNCC5)cc4)nc3c2)c1 [Compound 166] | 4.79 | ~5.62 |  | 
28 | <5 | 0.603 | 147 |  | COc1cc(OC)cc(N(CCO)c2ccc3ncc(/C(C)=N/OC(C)(C)C)nc3c2)c1 [Compound 171] | > 10 | > 10 |  | 
29 | 6.08 | 0.0295 | 142 |  | COc1cc(OC)cc(N(CCO)c2ccc3ncc(C4=CCN(C(=O)OC(C)(C)C)C4)nc3c2)c1 [Compound 173] | > 10 | > 10 |  | 
30 | 6.29 | 0.00513 | 150 |  | COc1cc(OC)cc(N(CCO)c2ccc3ncc(C4=CCN(C(=O)OC(C)(C)C)CC4)nc3c2)c1 [Compound 178] | > 10 | > 10 |  | 
